Reference: patent US5292733A, “Cephalosporin compounds” (Lucky Limited, priority 1991, dated 1994)
≈ marks a conversion by molar mass, not a printed value. Like-named read-outs stand apart in the source and are kept apart here.

Assays:
Test in all cases: Antibacterial activity MIC, two-fold agar dilution
Type in all cases: cell-based
[1] = tested on: Pseudomonas aeruginosa ATCC 10145; conditions: read-out: Antibacterial Activity MIC
Method: (§1) These MIC values were taken by employing a two-fold dilution method: that is, two-fold serial dilutions of each of the test compounds were made and dispersed in a Muller-Hinton agar medium; 2 μl of the standard test strain which had the 10^7 CFU(Colony Forming Unit) per ml was inoculated on the medium; and these were incubated at 37° C. for 20 hours. The results of the MIC tests are shown Table 1.

[2] = tested on: Staphylococcus aureus ATCC 10537; conditions: read-out: Antibacterial Activity MIC
Method: as §1

[3] = tested on: Proteus vulgaris ATCC 6059; conditions: read-out: Antibacterial Activity MIC
Method: as §1

[4] = tested on: Micrococcus luteus ATCC 9341; conditions: read-out: Antibacterial Activity MIC
Method: as §1

[5] = tested on: Acinetobacter calcoaceticus ATCC 15473; conditions: read-out: Antibacterial Activity MIC
Method: as §1

[6] = tested on: Bacillus cereus ATCC 11778; conditions: read-out: Antibacterial Activity MIC
Method: as §1

[7] = tested on: Staphylococcus aureus ATCC 6538p; conditions: ATCC6538P, read-out: Antibacterial Activity MIC
Method: as §1

[8] = tested on: Streptococcus faecalis ATCC 29212; conditions: Enterococcus faecalis, read-out: Antibacterial Activity MIC
Method: as §1

[9] = tested on: Escherichia coli ATCC 25922; conditions: ATCC25922, Muller-Hinton agar, 37° C., 20 hours
Method: as §1

[10] = tested on: Enterobacter cloacae ATCC 27508; conditions: read-out: Antibacterial Activity MIC
Method: as §1

[11] = tested on: Bacillus megaterium ATCC 9885; conditions: Priestia megaterium, read-out: Antibacterial Activity MIC
Method: as §1

[12] = tested on: Morganella morganii ATCC 8076h; conditions: ATCC8076H, Muller-Hinton agar, 37° C., 20 hours
Method: as §1

[13] = tested on: Klebsiella pneumoniae ATCC 10031; conditions: read-out: Antibacterial Activity MIC
Method: as §1

[14] = tested on: Escherichia coli ATCC 10536; conditions: ATCC10536, Muller-Hinton agar, 37° C., 20 hours
Method: as §1

[15] = tested on: Salmonella typhimurium ATCC 14028; conditions: Salmonella enterica, read-out: Antibacterial Activity MIC
Method: as §1

[16] = tested on: Staphylococcus epidermidis ATCC 12228; conditions: read-out: Antibacterial Activity MIC
Method: as §1

[17] = tested on: Providencia rettgeri ATCC 9250; conditions: ATCC9250, Muller-Hinton agar, 37° C., 20 hours
Method: as §1

[18] = tested on: Enterobacter aerogenes ATCC 29751; conditions: Klebsiella aerogenes, read-out: Antibacterial Activity MIC
Method: as §1

[19] = tested on: Pseudomonas aeruginosa ATCC 25619; conditions: read-out: Antibacterial Activity MIC
Method: as §1

[20] = tested on: Proteus mirabilis ATCC 25933; conditions: read-out: Antibacterial Activity MIC
Method: as §1

[21] = tested on: Shigella sonnei ATCC 11060; conditions: ATCC11060, Muller-Hinton agar, 37° C., 20 hours
Method: as §1

[22] = tested on: Serratia marcescens ATCC 27117; conditions: read-out: Antibacterial Activity MIC
Method: as §1

[23] = tested on: Citrobacter freundii ATCC 8090; conditions: read-out: Antibacterial Activity MIC
Method: as §1

[24] = tested on: Pseudomonas aeruginosa ATCC 27853; conditions: read-out: Antibacterial Activity MIC
Method: as §1

[25] = tested on: Shigella flexneri ATCC 11836; conditions: ATCC11836, Muller-Hinton agar, 37° C., 20 hours
Method: as §1

## CO/N=C(\C(=O)N[C@@H]1C(=O)N2C(C(=O)O)=C(COC(C)=O)CS[C@H]12)c1csc(N)n1 [Cefotaxime, reference compound]
[1]; ATCC10145, Pseudomonas aeruginosa ATCC 10145, Muller-Hinton agar, 37° C., 20 hours
  MIC: 16 µg/mL (≈ 35.1 µM)
[2]; ATCC10537, Staphylococcus aureus ATCC 10537, Muller-Hinton agar, 37° C., 20 hours
  MIC: 1 µg/mL (≈ 2.2 µM)
[3]; ATCC6059, Proteus vulgaris ATCC 6059, Muller-Hinton agar, 37° C., 20 hours
  MIC: 0.031 µg/mL (≈ 0.0681 µM)
[4]; ATCC9341, Micrococcus luteus ATCC 9341, Muller-Hinton agar, 37° C., 20 hours
  MIC: 0.031 µg/mL (≈ 0.0681 µM)
[5]; ATCC15473, Acinetobacter calcoaceticus ATCC 15473, Muller-Hinton agar, 37° C., 20 hours
  MIC: 8 µg/mL (≈ 17.6 µM)
[6]; ATCC11778, Bacillus cereus ATCC 11778, Muller-Hinton agar, 37° C., 20 hours
  MIC: 64 µg/mL (≈ 141 µM)
[7]; Staphylococcus aureus ATCC 6538p, Muller-Hinton agar, 37° C., 20 hours
  MIC: 4 µg/mL (≈ 8.78 µM)
[8]; ATCC29212, Streptococcus faecalis ATCC 29212, Muller-Hinton agar, 37° C., 20 hours
  MIC: > 128 µg/mL
[9]
  MIC: 0.031 µg/mL (≈ 0.0681 µM)
[10]; ATCC27508, Enterobacter cloacae ATCC 27508, Muller-Hinton agar, 37° C., 20 hours
  MIC: ≤ 0.008 µg/mL
[11]; ATCC9885, Bacillus megaterium ATCC 9885, Muller-Hinton agar, 37° C., 20 hours
  MIC: 0.063 µg/mL (≈ 0.138 µM)
[12]
  MIC: ≤ 0.008 µg/mL
[13]; ATCC10031, Klebsiella pneumoniae ATCC 10031, Muller-Hinton agar, 37° C., 20 hours
  MIC: ≤ 0.008 µg/mL
[14]
  MIC: 0.031 µg/mL (≈ 0.0681 µM)
[15]; Salmonella typhimurium ATCC 14028, Muller-Hinton agar, 37° C., 20 hours
  MIC: 0.13 µg/mL (≈ 0.285 µM)
[16]; ATCC12228, Staphylococcus epidermidis ATCC 12228, Muller-Hinton agar, 37° C., 20 hours
  MIC: 1 µg/mL (≈ 2.2 µM)
[17]
  MIC: ≤ 0.008 µg/mL
[18]; ATCC29751, Enterobacter aerogenes ATCC 29751, Muller-Hinton agar, 37° C., 20 hours
  MIC: 2 µg/mL (≈ 4.39 µM)
[19]; ATCC25619, Pseudomonas aeruginosa ATCC 25619, Muller-Hinton agar, 37° C., 20 hours
  MIC: 1 µg/mL (≈ 2.2 µM)
[20]; ATCC25933, Proteus mirabilis ATCC 25933, Muller-Hinton agar, 37° C., 20 hours
  MIC: 0.031 µg/mL (≈ 0.0681 µM)
[21]
  MIC: 0.063 µg/mL (≈ 0.138 µM)
[22]; ATCC27117, Serratia marcescens ATCC 27117, Muller-Hinton agar, 37° C., 20 hours
  MIC: 0.13 µg/mL (≈ 0.285 µM)
[23]; ATCC8090, Citrobacter freundii ATCC 8090, Muller-Hinton agar, 37° C., 20 hours
  MIC: 0.063 µg/mL (≈ 0.138 µM)
[24]; ATCC27853, Pseudomonas aeruginosa ATCC 27853, Muller-Hinton agar, 37° C., 20 hours
  MIC: 8 µg/mL (≈ 17.6 µM)
[25]
  MIC: 0.016 µg/mL (≈ 0.0351 µM)

## CC(C)(O/N=C(\C(=O)N[C@@H]1C(=O)N2C(C(=O)[O-])=C(C[n+]3ccccc3)CS[C@H]12)c1csc(N)n1)C(=O)O [Ceftazidime, reference compound]
[1]; Pseudomonas aeruginosa, ATCC10145, 20 h
  MIC: 2 µg/mL (≈ 3.66 µM)
[2]; Staphylococcus aureus, ATCC10537, 20 h
  MIC: 8 µg/mL (≈ 14.6 µM)
[3]; Proteus vulgaris, ATCC6059, 20 h
  MIC: 0.063 µg/mL (≈ 0.115 µM)
[4]; Micrococcus luteus, ATCC9341, 20 h
  MIC: 1 µg/mL (≈ 1.83 µM)
[5]; Acinetobacter calcoaceticus, ATCC15473, 20 h
  MIC: 4 µg/mL (≈ 7.32 µM)
[6]; Bacillus cereus, ATCC11778, 20 h
  MIC: 128 µg/mL (≈ 234 µM)
[7]; Staphylococcus aureus, 20 h
  MIC: 16 µg/mL (≈ 29.3 µM)
[8]; ATCC29212, 20 h
  MIC: > 128 µg/mL
[9]
  MIC: 0.13 µg/mL (≈ 0.238 µM)
[10]; Enterobacter cloacae, ATCC27508, 20 h
  MIC: 0.063 µg/mL (≈ 0.115 µM)
[11]; ATCC9885, 20 h
  MIC: 0.25 µg/mL (≈ 0.457 µM)
[12]
  MIC: 0.016 µg/mL (≈ 0.0293 µM)
[13]; Klebsiella pneumoniae, ATCC10031, 20 h
  MIC: 0.13 µg/mL (≈ 0.238 µM)
[14]
  MIC: 0.13 µg/mL (≈ 0.238 µM)
[15]; 20 h
  MIC: 0.25 µg/mL (≈ 0.457 µM)
[16]; Staphylococcus epidermidis, ATCC12228, 20 h
  MIC: 8 µg/mL (≈ 14.6 µM)
[17]
  MIC: ≤ 0.008 µg/mL
[18]; ATCC29751, 20 h
  MIC: 4 µg/mL (≈ 7.32 µM)
[19]; Pseudomonas aeruginosa, ATCC25619, 20 h
  MIC: 1 µg/mL (≈ 1.83 µM)
[20]; Proteus mirabilis, ATCC25933, 20 h
  MIC: 0.063 µg/mL (≈ 0.115 µM)
[21]
  MIC: 0.063 µg/mL (≈ 0.115 µM)
[22]; Serratia marcescens, ATCC27117, 20 h
  MIC: 0.13 µg/mL (≈ 0.238 µM)
[23]; Citrobacter freundii, ATCC8090, 20 h
  MIC: 1 µg/mL (≈ 1.83 µM)
[24]; Pseudomonas aeruginosa, ATCC27853, 20 h
  MIC: 1 µg/mL (≈ 1.83 µM)
[25]
  MIC: 0.063 µg/mL (≈ 0.115 µM)
